One test has as its target T1, OGFOD1 (Homo sapiens, UniProt Q8N543).
T1 construct: made in house
T1 sequence (Q8N543 1-542): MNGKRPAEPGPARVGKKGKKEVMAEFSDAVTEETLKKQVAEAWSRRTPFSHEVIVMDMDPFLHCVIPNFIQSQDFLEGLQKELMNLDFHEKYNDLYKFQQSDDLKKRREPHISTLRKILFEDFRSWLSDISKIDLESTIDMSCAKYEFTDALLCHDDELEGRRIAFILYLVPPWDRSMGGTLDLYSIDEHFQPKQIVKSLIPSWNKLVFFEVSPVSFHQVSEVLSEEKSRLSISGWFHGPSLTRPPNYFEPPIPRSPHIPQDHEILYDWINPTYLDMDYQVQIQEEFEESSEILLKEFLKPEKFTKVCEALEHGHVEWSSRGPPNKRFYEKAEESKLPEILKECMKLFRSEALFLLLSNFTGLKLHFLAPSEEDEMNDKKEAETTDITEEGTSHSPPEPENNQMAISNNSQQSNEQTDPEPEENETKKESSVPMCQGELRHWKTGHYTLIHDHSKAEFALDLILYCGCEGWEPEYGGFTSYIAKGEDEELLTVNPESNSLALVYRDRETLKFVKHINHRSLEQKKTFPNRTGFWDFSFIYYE
The experiment in a line: MALDI-TOF MS OGFOD1 hydroxylation assay. Format: biochemical. To be noted: at 10 μM inhibitor. The protocol: Supplementary Information […]
acid. […] Assay plates were transferred to a
MALDI-TOF MS OGFOD1 Hydroxylation Assays […]
metal affinity chromatography.
The optimized hydroxylation […]
presence of Fe(II) (50 μM), 2OG (25 μM), L-ascorbic acid (100 μM) and RPS2351-70 (25 μM) in HEPES (50 mM, pH 7.5) at 37 °C for 15 min. Reagent solutions were made as previously reported.[23] Reactions were quenched with formic acid (1 % v/v). Samples were prepared by mixing reaction mixture (1 μL) with α-cyano-4-hydrocinnamic acid (CHCA) solution (water:acetonitrile 1:1) (1 μL). Dose-response was assessed in 8-point triplicates.
(§1) Data were analysed using GraphPad Prism 5.04.

Test [1] concerns the target T2, viral collagen prolyl hydroxylase (vCPH) (Paramecium bursaria Chlorella virus 1, UniProt Q84406).
T2 construct: made in house
As to the kind of experiment: MALDI-TOF MS vCPH hydroxylation assay. The class given is biochemical. The protocol:
Supplementary Information presence of Fe(II) (50 μM), 2OG (25 μM), L-ascorbic acid (100 μM) and RPS2351-70 (25 μM) in HEPES (50 mM, pH 7.5) at 37 °C for 15 min. Reagent solutions were made as previously reported.[23] Reactions were quenched with formic acid (1 % v/v). Samples were prepared by mixing reaction mixture (1 μL) with α-cyano-4-hydrocinnamic acid (CHCA) solution (water:acetonitrile 1:1) (1 μL). Dose-response was assessed in 8-point triplicates.
as §1

Test [2] concerns the target T3, PHD2_181‐426 (Homo sapiens, UniProt Q9GZT9). The experiment in a line: biochemical.
For test [3], the target named is T3, PHD2_181‐426. The experiment in a line: biochemical. The source holds these as a separate data set.
In the next test the target is FIH (Homo sapiens, UniProt Q9NWT6). The experiment in a line: biochemical.
FIH, sequence (Q9NWT6 whole entry): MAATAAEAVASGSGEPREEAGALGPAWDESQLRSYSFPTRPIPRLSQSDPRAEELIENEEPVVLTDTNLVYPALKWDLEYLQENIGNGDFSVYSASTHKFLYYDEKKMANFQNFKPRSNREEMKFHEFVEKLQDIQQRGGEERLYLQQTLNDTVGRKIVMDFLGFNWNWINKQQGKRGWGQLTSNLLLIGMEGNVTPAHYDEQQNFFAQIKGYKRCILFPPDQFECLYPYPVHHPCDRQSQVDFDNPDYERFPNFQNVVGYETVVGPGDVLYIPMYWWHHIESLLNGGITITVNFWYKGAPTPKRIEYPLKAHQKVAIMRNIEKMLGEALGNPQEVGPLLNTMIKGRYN
Test [4] deals with T4, KDM4A (Homo sapiens, UniProt O75164).
T4 sequence (O75164 1-359 limits assumed): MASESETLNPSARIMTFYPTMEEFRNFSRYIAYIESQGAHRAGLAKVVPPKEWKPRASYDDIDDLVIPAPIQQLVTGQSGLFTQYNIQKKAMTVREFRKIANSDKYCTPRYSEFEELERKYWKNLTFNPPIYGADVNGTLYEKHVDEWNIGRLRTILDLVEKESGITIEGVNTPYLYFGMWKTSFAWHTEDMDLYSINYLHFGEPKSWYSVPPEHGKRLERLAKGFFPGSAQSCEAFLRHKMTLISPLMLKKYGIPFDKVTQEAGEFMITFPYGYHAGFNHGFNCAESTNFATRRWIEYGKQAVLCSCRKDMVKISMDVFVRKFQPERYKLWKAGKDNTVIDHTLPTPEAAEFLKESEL
The experiment in a line: biochemical.
Method: RapidFire-MS KDM4A hydroxylation assays
(§2) (RF-MS). […] The KDM4A RF-MS assay measures
(§3) depletion of a histone H3-K9 (Me3) peptide substrate and appearance of the dimethyl peptide
(§4) oxoglutarate (2OG, code K3752) were from Sigma Aldrich (Poole, Dorset). The H3K9Me3 peptide
(§5) each day to a concentration of 50 mM in deionized water, ferrous ammonium sulphate was prepared
(§6) freshly each day by dissolving to 400 mM in 10 mM HCl and then dilution to 1 mM in deionized
(§7) water, 2OG was prepared freshly each day by dissolving in 10 mM in deionized water. The
(§8) KDM4A RF-MS assay was performed in 384-well plate format in assay buffer (50 mM MES pH
(§9) 7.0). All reagent dispenses were performed using a multidrop reagent dispenser (Thermo). Dilutions
(§10) of compounds were prepared using an ECHO 550 acoustic dispenser (Labcyte) and dry dispensed
(§11) (250 nL) in duplicate into 384-well polypropylene plates (Greiner Bio-One); DMSO (250 nL) was
(§12) dispensed into columns 12 and 2, 4-pyridinedicarboxylic acid (a known JmjC KDM inhibitor)[21]
(§13) (250 nL of 10 mM) was dispensed into column 24 as a no enzyme control. KDM4A (300 nM) was
(§14) minutes. Reaction was initiated by dispensing of 25 µL of assay buffer containing substrate and co-
(§15) factors (200 µM LAA, 20 µM FAS, 20 µM 2OG and 20 µM H3K9Me3 peptide); reactions were
(§16) allowed to progress for 50 minutes, then stopped by addition of 5 µL of 10% (v/v) aqueous formic
(§17) acid. The final assay concentration of DMSO was 0.5% (v/v). Assay plates were transferred to a
(§18) RapidFire RF365 high throughput sampling robot and samples aspirated under vacuum onto a C4
(§19) SPE cartridge. After an aqueous wash step (0.1% v/v formic acid in water) to remove non-volatile
(§20) buffer components from the C4 SPE, peptide was eluted from the C4 SPE in an organic wash step
(§21) cycle of sample aspiration, loading, wash and elution takes approximately 12 seconds. Peptide
(§22) charge states were monitored in the positive ESI mode with a drying gas temperature of 280°C, a
(§23) drying gas flow rate of 13 L/minute, nebulizer gas pressure of 40 PSI, sheath gas temperature of
(§24) 350°C, sheath gas flow rate of 12 L/min and a nozzle voltage of 1000V. Ion chromatogram data
(§25) was extracted for the substrate and the product methyl marks and peak area data for extracted ion
(§26) chromatograms were integrated using RapidFire Integrator software (Agilent). % conversion to the
(§27) dimethyl peptide product was calculated using the equation:
(§28) % conversion = 100 x dimethyl / (dimethyl + trimethyl peptide)
(§29) IC50 data were determined from non -linear regression plots using GraphPad prism 6.0

The next test deals with Hep‐3B human cell line. As to the kind of experiment: Cellular HIF-1α stabilization by immunoblotting. The class given is cell-based. To be noted: Hep3B, 3 hours, immunoblot. The protocol: Other factors including cell penetration and metabolism likely impact on cellular activity.
Supplementary Information
Figure S7: Immunoblots of Hep3B cells treated with 100 μM (A) and 20 μM (B) PHD inhibitors for 3 hours. The blots show protein levels of HIF1-α and β-actin at the 3rd hour. Protocols for cell culture and immunoblotting have been previously reported.[2] […]
(In general: Immunoblotting shows a protein as a band on a membrane.)

The target in test [5] is T4, KDM4A.
Method: RapidFire-MS KDM4A hydroxylation assays
as §2, §3, §4, §5, §6, §7, §8, §9, §10, §11, §12, §13, §14, §15, §16, §17, §18, §19, §20, §21, §22, §23, §24, §25, §26, §27, §28, §29

Like-named read-outs stand apart in the source and are kept apart here.

T2 sequence (Q84406 entry or part of it): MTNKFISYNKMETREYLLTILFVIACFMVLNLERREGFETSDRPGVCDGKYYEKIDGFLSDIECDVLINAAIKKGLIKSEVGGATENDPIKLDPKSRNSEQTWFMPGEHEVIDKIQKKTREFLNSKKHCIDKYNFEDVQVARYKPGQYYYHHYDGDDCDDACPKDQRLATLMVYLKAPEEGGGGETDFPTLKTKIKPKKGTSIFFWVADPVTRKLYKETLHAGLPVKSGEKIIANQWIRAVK
T3 sequence (Q9GZT9 181-426): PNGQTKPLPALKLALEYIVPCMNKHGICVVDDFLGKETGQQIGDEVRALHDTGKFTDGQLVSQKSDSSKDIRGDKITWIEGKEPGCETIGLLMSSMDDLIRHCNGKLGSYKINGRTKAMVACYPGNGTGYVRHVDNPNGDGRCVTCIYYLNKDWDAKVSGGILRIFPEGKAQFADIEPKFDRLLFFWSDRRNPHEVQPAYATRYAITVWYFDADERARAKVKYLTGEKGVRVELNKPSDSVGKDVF
Method for FIH: chromatogram data were extracted for the +2 charge state and peak area data integrated using
RapidFire Integrator software (Agilent). The % conversion of the CODD peptide substrate to the +16 hydroxylated peptide was calculated using the equation:
determined from non-linear regression plots using GraphPad prism 6.0.
was normalized to no enzyme control.2
RapidFire-MS FIH hydroxylation assays
in the assay buffer (50 mM Tris-HCl pH 7.8, 50 mM NaCl) was pre - incubated for 15 minutes in
the presence of the inhibitors and the enzyme reaction initiated by addition of 20 μL substrate (200
μM L-ascorbic acid, 20 μM Fe(II) sulfate, 10 μM synthetic ankyrin peptide and 20 μM 2OG).[16]
After 15 minutes the reaction was quenched by addition of 4 μL 10% formic acid and the reaction
transferred to a RapidFire RF360 high throughput sampling robot. Samples were aspirated under
vacuum onto a C4 SPE cartridge. After an aqueous washing step (0.1% (v/v) aqueous formic acid),
to remove non-volatile buffer components from the C4 SPE cartridge , peptide was eluted in an
Ion chromatogram data was extracted for the non -hydroxylated
peptide substrate and the hydroxylated peptide product; the peak area data for extracted ion
chromatograms were integrated using RapidFire Integrator software. % conversion of substrate to
product was calculated in Microsoft excel and IC50 curves generated using Graph pad Prism.

Turning to `Cc1nc(C(=O)NCC(=O)O)c(O)c2ccc(Oc3ccccc3)cc12` [compound 1, Roxadustat, reference compound], the “OGFOD1 activity relative to control” value at OGFOD1 was 100%.

Usually IC50 stands for the concentration needed to halve the response being measured. As to `CCOC(=O)c1cnc(-n2cccn2)nc1O` [compound 6, Ethyl 4-hydroxy-2-(1H-pyrazol-1-yl) pyrimidine-5-carboxylate], the “vCPH inhibition (in words)” value in test [1] was “inactive”. Also, the IC50 on PHD2_181‐426 [2], at PHD2_181‐426 [3], at FIH and at KDM4A [4] was over 25 µM in each case.

Regarding `O=C(NCc1ccc(Oc2ccccc2)cc1)c1cnc(-n2cccn2)nc1O` [compound 8, 4-Hydroxy-N-(4-phenoxybenzyl)-2-(1H-pyrazol-1-yl)pyrimidine-5-carboxamide], the half-inhibitory concentration (IC50) in test [1] was 2 ± 0.1 µM; at KDM4A [4], over 25 µM. For the same compound, the “OGFOD1 activity relative to control” value at OGFOD1 is given as 83±13%. In addition, the “cellular HIF‐1α stabilization” value in the test with Hep‐3B human cell line (100 μM) is given as “strongest activity”.

In the case of `O=C(NCc1ccc(-c2ccccc2)cc1)c1cnc(-n2cccn2)nc1O` [compound 9, N-([1,1’-Biphenyl]-4-ylmethyl)-4-hydroxy-2-(1H-pyrazol-1-yl)pyrimidine-5-carboxamide], the IC50 was over 25 µM against FIH and 20 µM against KDM4A [4].

Turning to `O=C(NCc1ccccc1)c1cnc(-n2cccn2)nc1O` [compound 10, N-Benzyl-4-Hydroxy-2-(1H-pyrazol-1-yl)pyrimidine-5-carboxamide], on KDM4A [4], the IC50 was over 25 µM.

At KDM4A [4], `O=C(NCc1ccccn1)c1cnc(-n2cccn2)nc1O` [compound 11, 4-Hydroxy-2-(1H-pyrazol-1-yl)-N-(pyridin-2-ylmethyl)pyrimidine-5-carboxamide] gave an IC50 of 17 µM.

Regarding `O=C(NCC1CCCCC1)c1cnc(-n2cccn2)nc1O` [compound 12, N-(Cyclohexylmethyl)-4-hydroxy-2-(1H-pyrazol-1-yl)pyrimidine-5-carboxamide], the half-maximal inhibitory concentration (IC50) against PHD2_181‐426 [2], against PHD2_181‐426 [3], against FIH and at KDM4A [4] was over 25 µM each time.

As for `O=C(NCc1cccc(C(F)(F)F)c1)c1cnc(-n2cccn2)nc1O` [compound 13, 4-Hydroxy-2-(1H-pyrazol-1-yl)-N-(3-(trifluoromethyl)benzyl)pyrimidine-5-carboxamide], the “OGFOD1 activity relative to control” value on OGFOD1 was 75±1%. The half-inhibitory concentration (IC50) against FIH and on KDM4A [4] was over 25 µM each time.

For the compound `O=C(NCc1ccc2c(c1)OCO2)c1cnc(-n2cccn2)nc1O` [compound 14, N-(Benzo[d][1,3]dioxol-5-ylmethyl)-4-hydroxy-2-(1H-pyrazol-1-yl)pyrimidine-5-carboxamide], the results for the half-maximal inhibitory concentration (IC50) on PHD2_181‐426 [2], against PHD2_181‐426 [3] and on KDM4A [4] were 0.261 ± 0.037 µM, 0.274 ± 0.034 µM and 23 µM, respectively.

In the case of `O=C(Nc1ccc(-c2ccccc2)cc1)c1cnc(-n2cccn2)nc1O` [compound 15, N-([1,1’-Biphenyl]-4-yl)-4-hydroxy-2-(1H-pyrazol-1-yl)pyrimidine-5-carboxamide], the results for the half-maximal inhibitory concentration (IC50) (in test [1]; at KDM4A [4]) were 28.2 ± 1 µM and over 25 µM, respectively. In addition, the “cellular HIF‐1α stabilization” value with Hep‐3B human cell line (20 μM) is on record as “manifested HIF‐1α stabilization”; in the test on Hep‐3B human cell line (100 μM), “strongest activity”.

For the compound `O=C(N[C@@H](CO)c1ccccc1)c1cnc(-n2cccn2)nc1O` [compound 16], the IC50 in test [1] is 1.1 ± 0.1 µM; at KDM4A [4], over 25 µM. In addition, at OGFOD1, the “OGFOD1 activity relative to control” value was 41±5%. For the same compound, in the test with Hep‐3B human cell line (100 μM), the “cellular HIF‐1α stabilization” value was “inactive”.

Regarding `O=C(N[C@H](CO)c1ccccc1)c1cnc(-n2cccn2)nc1O` [compound 17], the “OGFOD1 activity relative to control” value at OGFOD1 is 70±3%. In the test on Hep‐3B human cell line (100 μM), the “cellular HIF‐1α stabilization” value is “modest HIF‐1α stabilization”. The compound further came in with a 50% inhibitory concentration (IC50) against KDM4A [4] of 21 µM.

Take `Cc1cccnc1CN1CCC2(CC1)C(=O)N(c1ccc(-c3ccccc3)cc1)C(=O)N2c1ncccn1` [compound 18, reference compound]: the results for the half-inhibitory concentration (IC50) (in test [1]; at KDM4A [5]; against FIH) were over 100 µM, 4.65 µM and over 25 µM, respectively. The “cellular HIF‐1α stabilization” value with Hep‐3B human cell line (20 μM) is listed as “manifested HIF‐1α stabilization”; with Hep‐3B human cell line (100 μM), “strongest activity”.
